Like-named read-outs stand apart in the source and are kept apart here. Values belong to the compound of their own block, whether it stands above or below them.
What was measured:
[1] = Compound content, recovery and encapsulation efficiency by RP-HPLC; format: physicochemical; conditions: pellet vs supernatant after 10 mM HCl, 30 min
[2] = test system: MenB strain NZ98; test: Bactericidal assay of sera of immunized mice against the MenB strain NZ98; format: in vivo, N. meningitidis; conditions: delivered with PLG as encapsulated or as co-lyophilized, 25 or 100 μg
Experimental: The PLG formulations described above (Vials 1-6) were reconstituted in 1.4 mL of water for injection with gentle mixing. 100 μL of the formulations were injected per mouse, corresponding to 10 μg of each MenB antigen and in case of formulations containing Compound 47, 25 μg or 100 μg of the adjuvant. Each mouse was immunized intramuscularly (50 μL at two sites) on days 0 and 14, and bled on day 28 and on day 56.
For mice injected with MenB antigen, pooled sera for each group was analyzed for bactericidal assay against the MenB strain NZ98 2 weeks post 2nd immunization.
For mice injected with MenB antigen, pooled sera for each group was also analyzed for bactericidal assay against the MenB strain NZ98 6 weeks post 2nd immunization.

[3] = Pharmacokinetic profile of Compound 47 in mice (serum, lymph nodes, muscle; LC-MS); format: in vivo; conditions: i.m. once, 1 or 4 mg/kg, various PLG formulations (Vials 1-5), up to 30 days
[4] = test system: mKC, MCP-1, IL-6, IL-10, IFNg and IL-5; test: Serum cytokine levels in mice (sandwich ELISA); format: in vivo; conditions: i.m., 1, 3 and 24 hours, formulated in the PLG-based particles
Experimental: Mice were also injected intramuscularly with above-described monodispersion of Compound 47 at a dose of 100 μg Compound 47. Serum cytokine levels (mKC, MCP-1, IL-6, IL-10, IFNg and IL-5) were measured at 1, 3 and 24 hours using sandwich ELISA.

[5] = biological target: T1, Human TLR7 (Homo sapiens, UniProt Q9NYK1); test: Human TLR7 EC50 in HEK293 (Table A); format: cell-based
T1 construct: expressed in transfected cells; host or cells: HEK293
T1 sequence (Q9NYK1 27-1049): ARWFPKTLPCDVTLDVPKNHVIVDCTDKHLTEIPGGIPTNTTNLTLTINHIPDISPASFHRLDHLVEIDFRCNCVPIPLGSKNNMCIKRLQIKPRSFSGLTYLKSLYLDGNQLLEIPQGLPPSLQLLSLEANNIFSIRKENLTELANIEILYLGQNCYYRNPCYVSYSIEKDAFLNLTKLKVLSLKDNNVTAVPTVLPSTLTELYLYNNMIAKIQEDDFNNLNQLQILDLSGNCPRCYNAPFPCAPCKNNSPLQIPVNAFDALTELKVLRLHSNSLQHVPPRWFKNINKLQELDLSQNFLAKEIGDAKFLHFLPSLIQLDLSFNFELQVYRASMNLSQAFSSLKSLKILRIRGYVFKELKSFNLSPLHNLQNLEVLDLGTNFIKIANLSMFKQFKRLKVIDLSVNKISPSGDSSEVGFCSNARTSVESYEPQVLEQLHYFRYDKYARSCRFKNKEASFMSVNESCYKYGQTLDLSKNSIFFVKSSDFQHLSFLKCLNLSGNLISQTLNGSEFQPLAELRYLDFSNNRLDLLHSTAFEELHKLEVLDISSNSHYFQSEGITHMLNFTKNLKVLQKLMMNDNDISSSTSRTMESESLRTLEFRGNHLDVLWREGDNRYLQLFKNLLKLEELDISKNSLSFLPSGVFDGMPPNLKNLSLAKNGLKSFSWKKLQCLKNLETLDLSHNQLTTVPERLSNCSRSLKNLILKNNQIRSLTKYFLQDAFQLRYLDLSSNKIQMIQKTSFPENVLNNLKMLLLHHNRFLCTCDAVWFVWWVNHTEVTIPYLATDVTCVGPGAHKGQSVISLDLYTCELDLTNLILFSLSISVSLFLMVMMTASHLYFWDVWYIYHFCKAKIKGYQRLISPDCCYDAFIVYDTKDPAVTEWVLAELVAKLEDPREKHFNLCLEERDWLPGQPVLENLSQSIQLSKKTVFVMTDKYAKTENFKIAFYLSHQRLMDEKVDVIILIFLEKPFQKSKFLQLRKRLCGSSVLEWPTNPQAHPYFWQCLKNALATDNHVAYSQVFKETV

[6] = Solubility of Compound 6A; format: physicochemical; conditions: for solubility: water, read-out: aqueous solubility

SMILES: Cc1ccc(CCc2cnc3c(N)nc4ccccc4c3c2)c(C)c1 [Compound 47, 2-(2,4-dimethylphenethyl)benzo[f][1,7]naphthyridin-5-amine]
amount of Compound 47 encapsulated in PLG particles [1]: > 90%
protection of the immunized mice against strain NZ98 [2]: significantly enhances the protection
level of Compound 47 in serum [3]: < 1000 nM
serum cytokine levels (mKC, MCP-1, IL-6, IL-10, IFNg and IL-5) [4]: low serum cytokines

EC50 [5]: 23700 nM
SMILES: COc1ccc(CCc2cnc3c(N)nc4cc(C(O)(P(=O)(O)O)P(=O)(O)O)ccc4c3c2)c(C)c1 [Compound 19A]

solubility in dichloromethane ([6]; dichloromethane): not soluble in dichloromethane
solubility ([6]; as base form): < 400 µg/mL
solubility ([6]; pH 7, as a sodium salt): > 4000 µg/mL
SMILES: Cc1ccc2c(c1)nc(N)c1ncc(CCc3ccc(OCCOCCOCCC(F)(F)P(=O)(O)O)cc3C)cc12 [Compound 6A, 3-(2-(2-(4-(2-(5-amino-8-methylbenzo[f][1,7]naphthyridin-2-yl)ethyl)-3-methylphenoxy)ethoxy)ethoxy)-1,1-difluoropropylphosphonic acid]
